Assay results as given in PMC4076294 (Journal of the American Chemical Society, 2014).
Several values for one entry are separate records, joined by “and”; a condition that tells them apart may be missing. Equal entries are not always repeated.

Tests used:
A2780 = assay: MTT assay; assay type: cell-based, human; conditions: read-out: IC50 at 48 h; A2780, 48 h
[1] = test system: A2780 ovarian cancer cells; assay: LIVE/DEAD cell viability assay; assay type: cell-based, human; conditions: 10 μM, 48 h
[2] = test system: nuclear DNA of A2780 cells; assay: DNA platination experiment; assay type: cell-based, human; conditions: 5 μM, 5 h, then 16 h in fresh media
[3] = comparison values; cited from earlier work

Compound | IC50 (A2780) [µM] | LIVE/DEAD cell assay outcome [1] | extent of DNA platination [2] | half-life in blood (t1/2) [3]
N.N.[Cl][Pt][Cl] [cisplatin] | 6.35 ± 1.39 | mostly survived | 36.4 ± 5.5 Pt adducts/10^6 nucleotides | 
CC(=O)[O][Pt]([NH2])([Cl])([Cl])([NH]C1CCCCC1)[O]C(C)=O [satraplatin] |  |  |  | 6.3 min and ~6 min
